PubChem BioAssay AID2060508 (Molecular Pharmacology Branch, DTP, NCI, 2025)

Test system: 454973-116-R2-J3-PDC spheroids, viability, % test/control
Test: Anticancer human tumor 454973-116-R2-J3-PDC patient-derived pancreatic carcinoma cell line growth inhibition [GQUAD]
Conditions: spheroids with HUVEC and MSC; for IC50: curve of first compound; for viability, T/C: stronger effect = lower value; active = viability on the fitted dose curve at most 10% of control; inactive = the rest
Method in brief: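 Viability of tumor cells grown as complex spheroids with endothelial and stromal cells, exposed to drug combinations. Top concentration at or near clinical Cmax (else 10 microM), diluted in half-log increments.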

[1] = second compound 0.0316 µM, first compound 0.0316 µM
[2] = second compound 0.0316 µM, first compound 0.1 µM
[3] = second compound 0.0316 µM, first compound 0.316 µM
[4] = second compound 0.0316 µM, first compound 1 µM
[5] = second compound 0.0316 µM, first compound 3.16 µM
[6] = second compound 0.0316 µM, first compound 10 µM
[7] = second compound 0.1 µM, first compound 0.0316 µM
[8] = second compound 0.1 µM, first compound 0.1 µM
[9] = second compound 0.1 µM, first compound 0.316 µM
[10] = second compound 0.1 µM, first compound 1 µM
[11] = second compound 0.1 µM, first compound 3.16 µM
[12] = second compound 0.1 µM, first compound 10 µM
[13] = second compound 0.316 µM, first compound 0.0316 µM
[14] = second compound 0.316 µM, first compound 0.1 µM
[15] = second compound 0.316 µM, first compound 0.316 µM
[16] = second compound 0.316 µM, first compound 1 µM
[17] = second compound 0.316 µM, first compound 3.16 µM
[18] = second compound 0.316 µM, first compound 10 µM
[19] = second compound 1 µM, first compound 0.0316 µM
[20] = second compound 1 µM, first compound 0.1 µM
[21] = second compound 1 µM, first compound 0.316 µM
[22] = second compound 1 µM, first compound 1 µM
[23] = second compound 1 µM, first compound 3.16 µM
[24] = second compound 1 µM, first compound 10 µM
[25] = second compound 3.16 µM, first compound 0.0316 µM
[26] = second compound 3.16 µM, first compound 0.1 µM
[27] = second compound 3.16 µM, first compound 0.316 µM
[28] = second compound 3.16 µM, first compound 1 µM
[29] = second compound 3.16 µM, first compound 3.16 µM
[30] = second compound 3.16 µM, first compound 10 µM
[31] = second compound 10 µM, first compound 0.0316 µM
[32] = second compound 10 µM, first compound 0.1 µM
[33] = second compound 10 µM, first compound 0.316 µM
[34] = second compound 10 µM, first compound 1 µM
[35] = second compound 10 µM, first compound 3.16 µM
[36] = second compound 10 µM, first compound 10 µM
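Also: spheroids exposed to compounds for seven days.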
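For viability, T/C in this document: 100% = DMSO vehicle control viability.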

COc1ncnc(C2CC2)c1-c1ncc2cnn(Cc3ccc(-c4nc(C(F)(F)F)cn4C(C)C)cc3)c2n1 + Cc1cnc(CNC(=O)c2c(=O)c3ccc(N4CCCN(C)CC4)nc3n3c2sc2ccccc23)cn1
inactive: viability, T/C [1] 96% | viability, T/C [2] 94% | viability, T/C [3] 87.8% | viability, T/C [4] 104% | viability, T/C [5] 88.9% | viability, T/C [6] 86.9% | viability, T/C [7] 82.1% | viability, T/C [8] 69.4% | viability, T/C [9] 74.7% | viability, T/C [10] 71.4% | viability, T/C [11] 69% | viability, T/C [12] 63.4% | viability, T/C [13] 65.4% | viability, T/C [14] 61.9% | viability, T/C [15] 59.5% | viability, T/C [16] 69.2% | viability, T/C [17] 60% | viability, T/C [18] 62% | viability, T/C [19] 55.3% | viability, T/C [20] 69.4% | viability, T/C [21] 57.4% | viability, T/C [22] 63.2% | viability, T/C [23] 61.4% | viability, T/C [24] 58.4% | viability, T/C [25] 61.7% | viability, T/C [26] 58.8% | viability, T/C [27] 61.7% | viability, T/C [28] 57.8% | viability, T/C [29] 67.8% | viability, T/C [30] 54% | viability, T/C [31] 0.22% | viability, T/C [32] 19.6% | viability, T/C [33] 50.4% | viability, T/C [34] 40.6% | viability, T/C [35] 0.38% | viability, T/C [36] 0.3%
> 10000 nM: IC50 (second compound 0.0316 µM) | IC50 (second compound 0.1 µM) | IC50 (second compound 0.316 µM) | IC50 (second compound 1 µM) | IC50 (second compound 3.16 µM)
< 31.6 nM: IC50 (second compound 10 µM)

COc1ccc([C@@H](O)c2cc(-c3ncnc4cc(N5CCOCC5)ccc34)c(F)cc2Cl)nn1 + Cc1cnc(CNC(=O)c2c(=O)c3ccc(N4CCCN(C)CC4)nc3n3c2sc2ccccc23)cn1
inactive: viability, T/C [1] 104% | viability, T/C [2] 88.2% | viability, T/C [3] 72.3% | viability, T/C [4] 43.9% | viability, T/C [5] 34% | viability, T/C [6] 33.9% | viability, T/C [7] 83.5% | viability, T/C [8] 71.3% | viability, T/C [9] 46% | viability, T/C [10] 35.3% | viability, T/C [11] 32.1% | viability, T/C [12] 30.1% | viability, T/C [13] 70.8% | viability, T/C [14] 66.3% | viability, T/C [15] 49.6% | viability, T/C [16] 42% | viability, T/C [17] 40.1% | viability, T/C [18] 30.8% | viability, T/C [19] 68.2% | viability, T/C [20] 59.2% | viability, T/C [21] 55.1% | viability, T/C [22] 43.7% | viability, T/C [23] 39.8% | viability, T/C [24] 28.4% | viability, T/C [25] 69% | viability, T/C [26] 54.3% | viability, T/C [27] 61.2% | viability, T/C [28] 41.5% | viability, T/C [29] 39.7% | viability, T/C [30] 27.3%
578 nM: IC50 (second compound 3.16 µM)
active: viability, T/C [31] 0.28% | viability, T/C [32] 0.73% | viability, T/C [33] 0.4% | viability, T/C [34] 0.39% | viability, T/C [35] 0.33% | viability, T/C [36] 0.28%
416 nM: IC50 (second compound 0.316 µM)
< 31.6 nM: IC50 (second compound 10 µM)
530 nM: IC50 (second compound 1 µM)
814 nM: IC50 (second compound 0.0316 µM)
269 nM: IC50 (second compound 0.1 µM)

CC(C)(O)C1CCC(Nc2ccc3ncc(-c4cccc(C(F)(F)F)c4)n3n2)CC1 (stereo unspecified) + CN(C)c1ccc(Nc2c3ccc(NC(=O)CCN4CCCC4)cc3nc3cc(NC(=O)CCN4CCCC4)ccc23)cc1
808 nM: IC50 (second compound 10 µM)
inactive: viability, T/C [1] 108% | viability, T/C [2] 101% | viability, T/C [3] 94.8% | viability, T/C [4] 77% | viability, T/C [5] 17.3% | viability, T/C [6] 29.5% | viability, T/C [7] 93.8% | viability, T/C [8] 90.3% | viability, T/C [9] 102% | viability, T/C [10] 72.6% | viability, T/C [11] 15.6% | viability, T/C [12] 34.5% | viability, T/C [13] 95.3% | viability, T/C [14] 90.3% | viability, T/C [15] 83.9% | viability, T/C [16] 62.9% | viability, T/C [17] 23.3% | viability, T/C [18] 33.2% | viability, T/C [19] 87.9% | viability, T/C [20] 92% | viability, T/C [21] 84.5% | viability, T/C [22] 55.8% | viability, T/C [23] 22.6% | viability, T/C [24] 30.5% | viability, T/C [25] 85.8% | viability, T/C [26] 82.7% | viability, T/C [27] 80.2% | viability, T/C [28] 39.4% | viability, T/C [29] 22.6% | viability, T/C [30] 31.6% | viability, T/C [31] 62.3% | viability, T/C [32] 64.8% | viability, T/C [33] 55% | viability, T/C [34] 48.1% | viability, T/C [35] 12.1%
1730 nM: IC50 (second compound 0.1 µM)
739 nM: IC50 (second compound 3.16 µM)
1540 nM: IC50 (second compound 0.316 µM)
active: viability, T/C [36] 10.4%
1780 nM: IC50 (second compound 0.0316 µM)
1250 nM: IC50 (second compound 1 µM)
